“And” between values parts separate entries of the source, which are not always exact repeats. Equal values may be shown once. Inconclusive results and toxic doses are left out. Rule as the data show it: active = T/C of 150% or more; inactive = T/C below 125%.
System: L1210 leukemia ip in BDF1 mice, survival T/C
Assay: NCI In Vivo Anticancer Drug Screen. Data for tumor model L1210 Leukemia (intraperitoneal) in B6D2F1 (BDF1) mice
Conditions: endpoint: mean survival time, higher = longer survival
Summary of the method: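 Mice bearing the transplanted tumor received compound or vehicle. Survival of the treated group was divided by that of the vehicle-treated control group to give the ratio.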

[1] = dose: 100.0 mg/kg/injection, schedule: Q01DX001 (ip), vehicle: saline
[2] = dose: 200.0 mg/kg/injection, schedule: Q01DX001 (ip), vehicle: saline
[3] = dose: 400.0 mg/kg/injection, schedule: Q01DX001 (ip), vehicle: saline
[4] = dose: 100.0 mg/kg/injection, schedule: Q04DX003 (ip), vehicle: saline with Tween-80
[5] = dose: 200.0 mg/kg/injection, schedule: Q04DX003 (ip), vehicle: saline with Tween-80

Measured: T/C

CCCCOC(=O)/C=C/C(=O)[O][Sn]([CH2]CCC)([CH2]CCC)[O]C(=O)/C=C/C(=O)OCCCC
inactive: dose: 12.5 mg/kg/injection, schedule: Q01DX009 (sc), vehicle: olive oil, sesame oil, peanut oil 98 % of control | dose: 25.0 mg/kg/injection, schedule: Q01DX009 (sc), vehicle: olive oil, sesame oil, peanut oil 108 % of control | dose: 25.0 mg/kg/injection, schedule: Q04DX002 (sc), vehicle: olive oil, sesame oil, peanut oil 97 % of control | dose: 50.0 mg/kg/injection, schedule: Q01DX009 (sc), vehicle: olive oil, sesame oil, peanut oil 95 % of control | dose: 50.0 mg/kg/injection, schedule: Q04DX002 (sc), vehicle: olive oil, sesame oil, peanut oil 94 % of control | dose: 100.0 mg/kg/injection, schedule: Q04DX002 (sc), vehicle: olive oil, sesame oil, peanut oil 96 % of control and 106 % of control | dose: 200.0 mg/kg/injection, schedule: Q04DX002 (sc), vehicle: olive oil, sesame oil, peanut oil 89 % of control

CC1(C)C(N2CCCC2)N(C(=O)c2ccccc2)SC12c1ccccc1-c1ccccc12 (stereo unspecified)
inactive: dose: 100.0 mg/kg/injection, schedule: Q04DX002 (ip), vehicle: Klucel (hydroxypropylcellulose) (HPC) 102 % of control | dose: 200.0 mg/kg/injection, schedule: Q04DX002 (ip), vehicle: Klucel (hydroxypropylcellulose) (HPC) 105 % of control | dose: 400.0 mg/kg/injection, schedule: Q04DX002 (ip), vehicle: Klucel (hydroxypropylcellulose) (HPC) 98 % of control

N#CS/C=C\C(N)=O
inactive: dose: 3.0 mg/kg/injection, schedule: Q01DX009 (ip), vehicle: Klucel (hydroxypropylcellulose) (HPC) 94 % of control | dose: 6.0 mg/kg/injection, schedule: Q01DX009 (ip), vehicle: Klucel (hydroxypropylcellulose) (HPC) 108 % of control | dose: 12.0 mg/kg/injection, schedule: Q01DX009 (ip), vehicle: Klucel (hydroxypropylcellulose) (HPC) 106 % of control | dose: 12.5 mg/kg/injection, schedule: Q01DX009 (ip), vehicle: Klucel (hydroxypropylcellulose) (HPC) 104 % of control | dose: 12.5 mg/kg/injection, schedule: Q04DX003 (ip), vehicle: Klucel (hydroxypropylcellulose) (HPC) 90 % of control

O=c1[nH]c(-c2ccccc2N=NN2CCCCC2)nc2ccccc12
inactive: dose: 25.0 mg/kg/injection, schedule: Q04DX002 (ip), vehicle: saline with Tween-80 100 % of control | dose: 50.0 mg/kg/injection, schedule: Q04DX002 (ip), vehicle: saline with Tween-80 103 % of control | dose: 200.0 mg/kg/injection, schedule: Q04DX002 (ip), vehicle: saline with Tween-80 103 % of control | dose: 400.0 mg/kg/injection, schedule: Q04DX002 (ip), vehicle: saline with Tween-80 88 % of control

OCC1OC(n2ccc3c(Cl)ncnc32)C(O)C1O (stereo unspecified)
inactive: dose: 25.0 mg/kg/injection, schedule: Q01DX001 (ip), vehicle: saline 110 % of control | dose: 50.0 mg/kg/injection, schedule: Q01DX001 (ip), vehicle: saline 104 % of control | [1] 110 % of control | [2] 110 % of control

CCSCC1OC2OC(C)(C)OC2C1O (stereo unspecified)
inactive: [1] 97 % of control | [2] 111 % of control | [3] 97 % of control

OC1CCCCC1[n+]1ccccc1 (stereo unspecified) (tested in a mixture with another compound)
inactive: [1] 103 % of control | [2] 88 % of control | [3] 101 % of control

CC(C)(C1c2ccccc2NC(=O)c2ccccc21)[N+](=O)[O-] (stereo unspecified)
inactive: [4] 101 % of control | [5] 94 % of control

CCOc1ccn(CC(=O)c2ccc([N+](=O)[O-])o2)c(=O)n1
inactive: dose: 50.0 mg/kg/injection, schedule: Q01DX009 (ip), vehicle: saline with Tween-80 96 % of control | dose: 100.0 mg/kg/injection, schedule: Q01DX009 (ip), vehicle: saline with Tween-80 94 % of control | [4] 98 % of control | [5] 91 % of control

N#Cc1ccc(Cl)c2c1C(=O)c1ccccc1C2=O
inactive: [1] 98 % of control | dose: 100.0 mg/kg/injection, schedule: Q01DX009 (ip), vehicle: saline 100 % of control | [2] 98 % of control | dose: 200.0 mg/kg/injection, schedule: Q01DX009 (ip), vehicle: saline 94 % of control | [3] 95 % of control | dose: 400.0 mg/kg/injection, schedule: Q01DX009 (ip), vehicle: saline 92 % of control
